Assay results as given in patent US20250170248A1, “SMARCA DEGRADERS AND USES THEREOF” (Kymera Therapeutics, Inc., priority 2021, published 2025).

Assays:
Format in all cases: cell-based
SMARCA2 [1] = biological target: T1, SMARCA2 (Homo sapiens, UniProt P51531); test: MSD SMARCA2 degradation in A549 cell line; settings: for Dmax: A549, A549 cells; for Dmax / DC50: 24 h; for DC50 / SMARCA2 MSD A549 degradation 24 h: Average Dmax %: A549 cells; for DC50: read-out: SMARCA2 MSD A549 degradation 24 h: Average external-Abs DC50
T1 sequence (P51531 whole entry): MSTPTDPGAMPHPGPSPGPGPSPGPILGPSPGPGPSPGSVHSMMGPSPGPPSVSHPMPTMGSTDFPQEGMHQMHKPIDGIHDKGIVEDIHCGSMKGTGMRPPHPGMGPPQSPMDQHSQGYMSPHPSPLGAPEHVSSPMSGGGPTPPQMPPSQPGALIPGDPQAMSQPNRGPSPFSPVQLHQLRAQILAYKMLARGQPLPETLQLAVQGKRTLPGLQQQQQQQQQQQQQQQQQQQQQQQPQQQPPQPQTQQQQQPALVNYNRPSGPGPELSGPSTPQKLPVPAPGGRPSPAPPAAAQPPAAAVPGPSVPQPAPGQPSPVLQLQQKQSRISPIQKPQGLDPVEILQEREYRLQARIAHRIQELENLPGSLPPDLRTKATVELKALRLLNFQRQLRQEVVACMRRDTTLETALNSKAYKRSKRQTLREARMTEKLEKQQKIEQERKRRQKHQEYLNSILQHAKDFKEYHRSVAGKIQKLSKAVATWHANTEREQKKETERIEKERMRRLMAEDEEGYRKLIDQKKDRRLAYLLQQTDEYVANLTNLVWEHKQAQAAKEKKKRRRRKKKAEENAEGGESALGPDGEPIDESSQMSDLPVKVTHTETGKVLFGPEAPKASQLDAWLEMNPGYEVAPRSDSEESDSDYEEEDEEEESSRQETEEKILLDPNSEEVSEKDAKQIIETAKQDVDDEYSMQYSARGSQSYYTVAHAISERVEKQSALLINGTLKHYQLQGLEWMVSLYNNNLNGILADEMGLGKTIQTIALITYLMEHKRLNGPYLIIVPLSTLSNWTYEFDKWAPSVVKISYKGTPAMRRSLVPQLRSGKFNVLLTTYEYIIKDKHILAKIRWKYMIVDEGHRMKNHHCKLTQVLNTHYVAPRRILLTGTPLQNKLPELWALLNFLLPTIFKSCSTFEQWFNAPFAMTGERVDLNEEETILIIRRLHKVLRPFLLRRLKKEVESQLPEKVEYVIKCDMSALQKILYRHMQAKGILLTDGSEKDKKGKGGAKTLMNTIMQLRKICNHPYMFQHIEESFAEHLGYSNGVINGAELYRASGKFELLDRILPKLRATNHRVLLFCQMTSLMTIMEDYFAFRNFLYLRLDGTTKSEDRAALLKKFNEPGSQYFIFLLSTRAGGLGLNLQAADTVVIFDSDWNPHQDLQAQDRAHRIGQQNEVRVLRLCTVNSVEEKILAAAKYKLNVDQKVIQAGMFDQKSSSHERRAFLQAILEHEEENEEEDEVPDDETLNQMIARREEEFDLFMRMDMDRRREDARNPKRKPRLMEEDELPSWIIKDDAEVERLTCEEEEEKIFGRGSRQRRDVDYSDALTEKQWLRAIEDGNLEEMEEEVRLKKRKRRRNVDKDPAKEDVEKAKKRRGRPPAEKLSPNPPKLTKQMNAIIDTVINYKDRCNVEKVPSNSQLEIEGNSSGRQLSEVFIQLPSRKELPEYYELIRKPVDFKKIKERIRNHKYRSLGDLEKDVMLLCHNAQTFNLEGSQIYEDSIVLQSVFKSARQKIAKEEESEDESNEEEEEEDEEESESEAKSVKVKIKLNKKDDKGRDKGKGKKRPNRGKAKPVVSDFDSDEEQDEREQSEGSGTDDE
Method in brief: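 SMARCA2 protein remaining after 24 h exposure of A549 cells (top concentration 1000 nM, 3-fold dilutions) was measured by MSD electrochemiluminescence immunoassay of cell lysates. Results are given as binned DC50 and maximal degradation (Dmax) codes.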

SMARCA4 = biological target: T2, SMARCA4 (Homo sapiens, UniProt P51532); test: SMARCA4 Western blot degradation in MV4-11 cells; settings: for Dmax: MV4-11, MV4-11 cells, read-out: SMARCA4 MSD MV411 degradation 24 h: average Dmax %; for Dmax / DC50: 24 h; for DC50 / SMARCA4 MSD MV411 degradation 24 h: average Dmax %: MV4-11 cells; for DC50: read-out: SMARCA4 MSD MV411 degradation 24 h: Mean external-Abs DC50
T2 construct: SMARCA2/SMARCA4 protein degradation selectivity in MV4-11 cells; endogenous in cells; host or cells: MV4-11
T2 sequence (P51532 whole entry): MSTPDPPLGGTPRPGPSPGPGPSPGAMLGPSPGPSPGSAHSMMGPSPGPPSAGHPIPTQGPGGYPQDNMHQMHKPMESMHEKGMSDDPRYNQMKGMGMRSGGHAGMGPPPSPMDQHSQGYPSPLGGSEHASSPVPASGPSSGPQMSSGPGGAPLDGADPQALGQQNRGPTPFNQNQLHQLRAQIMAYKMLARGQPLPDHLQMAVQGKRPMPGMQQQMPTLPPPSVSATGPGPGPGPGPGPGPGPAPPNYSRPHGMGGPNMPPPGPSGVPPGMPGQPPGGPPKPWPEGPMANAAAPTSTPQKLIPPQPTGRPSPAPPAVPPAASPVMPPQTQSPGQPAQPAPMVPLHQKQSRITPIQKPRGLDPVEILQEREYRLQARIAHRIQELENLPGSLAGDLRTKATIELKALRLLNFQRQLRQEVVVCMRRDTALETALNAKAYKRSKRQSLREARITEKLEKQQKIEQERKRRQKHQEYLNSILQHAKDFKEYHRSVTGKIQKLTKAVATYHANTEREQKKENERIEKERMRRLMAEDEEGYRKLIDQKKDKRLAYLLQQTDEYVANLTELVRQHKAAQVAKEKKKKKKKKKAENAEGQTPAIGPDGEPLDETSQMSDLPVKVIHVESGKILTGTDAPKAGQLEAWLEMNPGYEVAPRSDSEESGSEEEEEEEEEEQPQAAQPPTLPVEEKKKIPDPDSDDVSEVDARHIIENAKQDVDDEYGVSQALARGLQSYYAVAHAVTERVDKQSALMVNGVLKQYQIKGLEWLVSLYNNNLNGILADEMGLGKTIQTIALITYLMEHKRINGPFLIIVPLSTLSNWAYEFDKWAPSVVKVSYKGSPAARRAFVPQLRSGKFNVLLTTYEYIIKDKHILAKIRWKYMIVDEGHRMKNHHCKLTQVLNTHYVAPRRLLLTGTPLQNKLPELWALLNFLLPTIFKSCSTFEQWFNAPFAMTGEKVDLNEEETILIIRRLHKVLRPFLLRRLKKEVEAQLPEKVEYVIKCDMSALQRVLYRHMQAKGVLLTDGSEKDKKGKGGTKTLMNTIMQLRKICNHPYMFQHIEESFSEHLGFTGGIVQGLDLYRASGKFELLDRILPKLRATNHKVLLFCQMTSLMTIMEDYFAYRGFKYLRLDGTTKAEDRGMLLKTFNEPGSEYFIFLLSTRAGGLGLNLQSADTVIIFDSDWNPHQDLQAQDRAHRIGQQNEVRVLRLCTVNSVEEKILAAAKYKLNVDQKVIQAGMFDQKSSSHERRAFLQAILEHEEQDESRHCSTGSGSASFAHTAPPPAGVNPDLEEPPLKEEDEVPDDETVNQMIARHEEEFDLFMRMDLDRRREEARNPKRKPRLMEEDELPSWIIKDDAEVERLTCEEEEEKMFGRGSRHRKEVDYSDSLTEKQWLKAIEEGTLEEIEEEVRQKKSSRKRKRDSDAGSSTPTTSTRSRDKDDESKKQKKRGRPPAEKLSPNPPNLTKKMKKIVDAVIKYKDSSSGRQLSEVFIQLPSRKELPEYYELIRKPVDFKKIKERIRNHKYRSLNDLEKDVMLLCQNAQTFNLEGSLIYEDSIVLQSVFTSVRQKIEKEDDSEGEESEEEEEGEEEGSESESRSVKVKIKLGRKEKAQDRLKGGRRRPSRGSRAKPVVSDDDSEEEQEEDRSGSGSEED
Method in brief: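 Fluorescent LI-COR imaging of Western blots quantified SMARCA2 and SMARCA4 protein remaining in MV4-11 cells after 24 h of compound treatment. β-actin was the loading control, and DC50, Dmax and SMARCA2/4 selectivity are given as letter-coded ranges.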

SMARCA2 [2] = biological target: T1, SMARCA2; test: SMARCA2 Western blot degradation in MV4-11 cells; design: SMARCA2/SMARCA4 protein degradation selectivity in MV4-11 cells; endogenous in cells; host or cells: MV4-11; settings: for Dmax: MV4-11, MV4-11 cells, read-out: SMARCA2 MSD MV411 degradation 24 h: average Dmax %; for Dmax / DC50 / SMARCA2 MSD MV411 degradation 24 h: average Dmax %: 24 h; for DC50 / Selectivity in MV411 / SMARCA2 MSD MV411 degradation 24 h: average Dmax %: MV4-11 cells; for DC50: read-out: SMARCA2 MSD MV411 degradation 24 h: Mean external-Abs DC50; for Selectivity in MV411: SMARCA2/4 selectivity

| Structure (SMILES) | Dmax (SMARCA2 [1]) [%] | DC50 (SMARCA2 [1]) [nM] | Dmax (SMARCA4) [%] | DC50 (SMARCA4) [nM] | Dmax (SMARCA2 [2]) [%] | DC50 (SMARCA2 [2]) [nM] | Selectivity in MV411 (SMARCA2 [2]) | SMARCA2 MSD A549 degradation 24 h: Average Dmax % (SMARCA2 [1]) | SMARCA4 MSD MV411 degradation 24 h: average Dmax % (SMARCA4) | SMARCA2 MSD MV411 degradation 24 h: average Dmax % (SMARCA2 [2]) |
| --- | --- | --- | --- | --- | --- | --- | --- | --- | --- | --- |
| C#Cc1ccc(CNC(=O)[C@@H]2C[C@@H](O)CN2C(=O)[C@@H](NC(=O)N2CCN(CC3CCN([C@H]4CC[C@H](N5CCN6c7cc(-c8ccccc8O)nnc7NC[C@H]6C5)CC4)CC3)CC2)C(C)(C)C)cc1 [I-217] | 70 to 90 | > 100 | < 50 | > 100 | 50 to 70 | 10 to 100 | C (C (10-100 fold)) |  |  |  |
| C#Cc1ccc([C@H](C)NC(=O)[C@@H]2C[C@@H](O)CN2C(=O)[C@@H](NC(=O)[C@H]2CC3(C2)C[C@H](c2cnc(N4CCC(N5CCN6c7cc(-c8ccccc8O)nnc7NC[C@H]6C5)CC4)nc2)C3)C(C)(C)C)cc1 (stereo partly shown) [I-363] |  | 10 to 50 |  | > 100 |  | 1 to 10 | C (C (10-100 fold)) |  |  |  |
| C#Cc1ccc(CNC(=O)[C@@H]2C[C@@H](O)CN2C(=O)[C@@H](NC(=O)[C@H]2CC3(C2)C[C@H](N2CCC(N4CCC(N5CCN6c7cc(-c8ccccc8O)nnc7NC[C@H]6C5)CC4)CC2)C3)C(C)(C)C)c(O)c1 (single isomer, unassigned) [I-241] | > 90 | 50 to 100 | 70 to 90 | 10 to 100 | > 90 | 1 to 10 | C (C (10-100 fold)) |  |  |  |
| Cc1cc(Cl)ccc1C#CCNC(=O)[C@@H]1C[C@@H](O)CN1C(=O)[C@@H](NC(=O)[C@H]1CCC2(CC1)C[C@H](N1CCC(c3cnc(N4CCN5c6cc(-c7ccccc7O)nnc6NC[C@H]5C4)nc3)CC1)C2)C(C)(C)C (single isomer, unassigned) [I-126] |  | > 100 |  | > 100 |  | > 100 | C (C (10-100 fold)) | D (D (<50% degradation)) | D (D (<50% degradation)) | D (D (<50% degradation)) |
| C#Cc1ccc(CNC(=O)[C@@H]2C[C@@H](O)CN2C(=O)[C@@H](NC(=O)[C@H]2CCC3(CC2)C[C@H](N2CCC(c4ccc(N5CCN6c7cc(-c8ccccc8O)nnc7NC[C@H]6C5)nc4)CC2)C3)C(C)(C)C)cc1 (single isomer, unassigned) [I-155] | > 90 | 10 to 50 | < 50 | > 100 | 70 to 90 | 1 to 10 | A (A (>500 fold)) |  |  |  |
| C#Cc1ccc([C@H](C)NC(=O)[C@@H]2C[C@@H](O)CN2C(=O)C(c2cc(N3CC4(CC(N5CCC(N6CCC(N7CCN8c9cc(-c%10ccccc%10O)nnc9NC[C@H]8C7)CC6)CC5)C4)C3)no2)C(C)C)cc1 (stereo partly shown) [I-332] | > 90 | < 10 | > 90 | 1 to 10 | > 90 | < 1 | C (C (10-100 fold)) |  |  |  |
| C#Cc1ccc(CNC(=O)[C@@H]2C[C@@H](O)CN2C(=O)[C@@H](NC(=O)N2CCN(CC3CCN([C@H]4CC[C@@H](N5CCN6c7cc(-c8ccccc8O)nnc7NC[C@H]6C5)CC4)CC3)CC2)C(C)(C)C)cc1 [I-216] | 70 to 90 | > 100 | < 50 | > 100 | < 50 | > 100 | C (C (10-100 fold)) |  |  |  |
| C#Cc1ccc(CNC(=O)[C@@H]2C[C@@H](O)CN2C(=O)[C@@H](NC(=O)[C@H]2CC3(C2)C[C@H](N2CCC(N4CCC(N5CCN6c7cc(-c8ccccc8O)nnc7NC[C@H]6C5)CC4)CC2)C3)C(C)(C)C)c(Cl)c1 (single isomer, unassigned) [I-229] | > 90 | > 100 | 50 to 70 | > 100 | 70 to 90 | 10 to 100 | B (B (>100-500 fold)) |  |  |  |

More lines, now with the values ahead:

| Dmax (SMARCA2 [1]) [%] | DC50 (SMARCA2 [1]) [nM] | Dmax (SMARCA4) [%] | DC50 (SMARCA4) [nM] | Dmax (SMARCA2 [2]) [%] | DC50 (SMARCA2 [2]) [nM] | Selectivity in MV411 (SMARCA2 [2]) | SMARCA2 MSD A549 degradation 24 h: Average Dmax % (SMARCA2 [1]) | SMARCA4 MSD MV411 degradation 24 h: average Dmax % (SMARCA4) | SMARCA2 MSD MV411 degradation 24 h: average Dmax % (SMARCA2 [2]) | Structure (SMILES) |
| --- | --- | --- | --- | --- | --- | --- | --- | --- | --- | --- |
| 50 to 70 | > 100 | < 50 | > 100 | < 50 | > 100 | D (D (<10 fold)) |  |  |  | C#Cc1cnc(CNC(=O)[C@@H]2C[C@@H](O)CN2C(=O)[C@@H](NC(=O)[C@H]2CCC3(CC2)C[C@H](N2CCC(c4cnc(N5CCN6c7cc(-c8ccccc8O)nnc7NC[C@H]6C5)nc4)CC2)C3)C(C)(C)C)c(OC)c1 (single isomer, unassigned) [I-286] |
| > 90 | 10 to 50 | < 50 | > 100 | 70 to 90 | 1 to 10 | A (A (>500 fold)) |  |  |  | C#Cc1ccc(CNC(=O)[C@@H]2C[C@@H](O)CN2C(=O)[C@@H](NC(=O)[C@H]2CCC3(CC2)C[C@H](N2CCC(c4cnc(N5CCN6c7cc(-c8ccccc8O)nnc7NC[C@H]6C5)nc4)CC2)C3)C(C)(C)C)c(F)c1 (single isomer, unassigned) [I-97] |
| > 90 | 50 to 100 | > 90 | 10 to 100 | 70 to 90 | 10 to 100 | D (D (<10 fold)) |  |  |  | C#Cc1ccc(CNC(=O)[C@@H]2C[C@@H](O)CN2C(=O)[C@@H](NC(=O)N2CC3(CC(N4CCN([C@H]5CC[C@H](N6CCc7[nH]c8nnc(-c9ccccc9O)cc8c7[C@H]6C)CC5)CC4)C3)C2)C(C)(C)C)cc1 [I-186] |
|  | < 10 |  | > 100 |  | 1 to 10 | B (B (>100-500 fold)) | A (A (>90% degradation)) | C (C (50-70% degradation)) | B (B (>70-90% degradation)) | C#Cc1ccc(CNC(=O)[C@@H]2C[C@@H](O)CN2C(=O)[C@@H](NC(=O)[C@H]2CCC3(CC2)C[C@H](N2CCC(c4cnc(N5CCN6c7cc(-c8ccccc8O)nnc7NC[C@H]6C5)nc4)CC2)C3)C(C)(C)C)c(Cl)c1 (single isomer, unassigned) [I-99] |
| > 90 | 10 to 50 | 70 to 90 | > 100 | > 90 | 10 to 100 | C (C (10-100 fold)) |  |  |  | C#Cc1ccc(CNC(=O)[C@@H]2C[C@@H](O)CN2C(=O)[C@@H](NC(=O)N2CC3(CC(N4CCC(c5cnc(N6CCc7[nH]c8nnc(-c9ccccc9O)cc8c7[C@H]6C)nc5)CC4)C3)C2)C(C)(C)C)cc1Cl [I-309] |
| > 90 | 50 to 100 | > 90 | > 100 | 70 to 90 | 10 to 100 | D (D (<10 fold)) |  |  |  | C#Cc1ccc(CNC(=O)[C@@H]2C[C@@H](O)CN2C(=O)[C@@H](NC(=O)N2CC3(CC(N4CCC(c5cnc(N6CCc7[nH]c8nnc(-c9ccccc9O)cc8c7[C@@H]6C)nc5)CC4)C3)C2)C(C)(C)C)c(OCCCOC)c1 [I-227] |
| > 90 | 10 to 50 | 70 to 90 | > 100 | 70 to 90 | 10 to 100 | C (C (10-100 fold)) |  |  |  | C#Cc1cc(F)c(CNC(=O)[C@@H]2C[C@@H](O)CN2C(=O)[C@@H](NC(=O)N2CC3(CC(N4CCC(c5cnc(N6CCc7[nH]c8nnc(-c9ccccc9O)cc8c7[C@H]6C)nc5)CC4)C3)C2)C(C)(C)C)cc1F [I-403] |
| > 90 | > 100 | < 50 | > 100 | < 50 | > 100 | C (C (10-100 fold)) |  |  |  | C#Cc1ccc(CNC(=O)[C@@H]2C[C@@H](O)CN2C(=O)[C@@H](NC(=O)N2CC3(CC(N4CC5(CC(N6CCC(N7CCc8[nH]c9nnc(-c%10ccccc%10O)cc9c8[C@H]7C)CC6)C5)C4)C3)C2)C(C)(C)C)cc1 [I-205] |
| > 90 | 50 to 100 | 70 to 90 | > 100 | 70 to 90 | 1 to 10 | C (C (10-100 fold)) |  |  |  | C#Cc1ccc(CNC(=O)[C@@H]2C[C@@H](O)CN2C(=O)[C@@H](NC(=O)N2CC3(CC(N4CCN([C@H]5CC[C@@H](N6CCc7[nH]c8nnc(-c9ccccc9O)cc8c7[C@H]6C)CC5)CC4)C3)C2)C(C)(C)C)cc1 [I-187] |
| > 90 | 10 to 50 | > 90 | 10 to 100 | > 90 | < 1 | C (C (10-100 fold)) |  |  |  | C#Cc1ccc(CNC(=O)[C@@H]2C[C@@H](O)CN2C(=O)[C@@H](NC(=O)N2CC3(CC(N4CCC(c5cnc(N6CCc7[nH]c8nnc(-c9ccccc9O)cc8c7[C@H]6C)nc5)CC4)C3)C2)C(C)(C)C)c(OCCCC(=O)O)c1 [I-145] |
| > 90 | 10 to 50 | 50 to 70 | > 100 | 70 to 90 | 1 to 10 | C (C (10-100 fold)) |  |  |  | C#Cc1ccc(CNC(=O)[C@@H]2C[C@@H](O)CN2C(=O)[C@@H](NC(=O)N2CC3(CC(N4CCC(c5cnc(N6CCc7[nH]c8nnc(-c9ccccc9O)cc8c7[C@H]6C)s5)CC4)C3)C2)C(C)(C)C)cc1 [I-323] |
